According to ChEMBL document CHEMBL1139487, “Discovery of corticotropin releasing factor 2 receptor selective sauvagine analogues for treatment of skeletal muscle atrophy” (J Med Chem, 2005):
Square brackets hold non-standard residues; d marks the D form. Peptide text beside a SMILES is read from it. 2Nal = N[C@@H](Cc1ccc2ccccc2c1)C(=O)O; pGlu = O=C1CC[C@@H](C(=O)O)N1

Columns and labels:
[1] = target: Corticotropin-releasing factor receptor 2 (Mus musculus, UniProt Q60748); assay: In vitro effective concentration for mouse corticotropin releasing factor 2 receptor
[2] = target: T1, Corticotropin-releasing factor receptor 1 (Mus musculus, UniProt P35347); assay: In vitro effective concentration for mouse corticotropin releasing factor 1 receptor
T1 sequence (P35347 whole entry): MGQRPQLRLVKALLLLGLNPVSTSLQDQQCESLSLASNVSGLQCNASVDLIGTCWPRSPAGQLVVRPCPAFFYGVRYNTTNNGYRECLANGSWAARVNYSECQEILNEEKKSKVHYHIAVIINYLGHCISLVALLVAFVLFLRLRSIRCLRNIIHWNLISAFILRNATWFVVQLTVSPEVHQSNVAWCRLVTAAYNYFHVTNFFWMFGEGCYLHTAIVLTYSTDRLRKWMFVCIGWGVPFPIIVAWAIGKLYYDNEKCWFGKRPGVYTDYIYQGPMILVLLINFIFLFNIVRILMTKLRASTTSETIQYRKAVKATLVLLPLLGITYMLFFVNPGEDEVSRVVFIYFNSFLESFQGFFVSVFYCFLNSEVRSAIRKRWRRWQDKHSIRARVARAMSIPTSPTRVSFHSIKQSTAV

Chain of Corticotropin-releasing factor receptor 2 (Q60748 whole entry): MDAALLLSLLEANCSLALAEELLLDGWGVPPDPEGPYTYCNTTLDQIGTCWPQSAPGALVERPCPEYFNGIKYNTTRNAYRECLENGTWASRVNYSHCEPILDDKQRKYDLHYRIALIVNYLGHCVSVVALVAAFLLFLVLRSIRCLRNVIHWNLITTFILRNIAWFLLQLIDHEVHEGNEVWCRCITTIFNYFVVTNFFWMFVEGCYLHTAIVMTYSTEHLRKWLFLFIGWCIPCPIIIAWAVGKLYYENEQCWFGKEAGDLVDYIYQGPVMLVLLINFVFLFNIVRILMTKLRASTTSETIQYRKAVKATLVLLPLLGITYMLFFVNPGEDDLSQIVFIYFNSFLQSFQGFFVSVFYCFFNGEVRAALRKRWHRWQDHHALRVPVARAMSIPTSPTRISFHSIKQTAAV

| Structure (SMILES) | EC50 [1] | EC50 [2] |
| --- | --- | --- |
| CC[C@H](C)[C@H](NC(=O)[C@@H](NC(=O)[C@H](CC(=O)O)NC(=O)[C@H](CC(C)C)NC(=O)[C@H](CC(C)C)NC(=O)[C@H](CC(C)C)NC(=O)[C@H](CCCNC(=N)N)NC(=O)[C@H](CC(N)=O)NC(=O)[C@H](CC(N)=O)NC(=O)[C@H](C)NC(=O)[C@H](C)NC(=O)[C@H](CCC(N)=O)NC(=O)[C@H](CCC(N)=O)NC(=O)[C@H](CCCCN)NC(=O)[C@H](CCC(=O)O)NC(=O)[C@H](CCCCN)NC(=O)[C@H](CCC(=O)O)NC(=O)[C@H](CCC(N)=O)NC(=O)[C@H](CCCCN)NC(=O)[C@H](CCC(=O)O)NC(=O)[C@@H](NC(=O)[C@H](CCC(=O)O)NC(=O)[C@@H](NC(=O)[C@H](CCSC)NC(=O)[C@H](CCCCN)NC(=O)[C@H](CCCNC(=N)N)NC(=O)[C@H](CC(C)C)NC(=O)[C@H](CC(C)C)NC(=O)[C@H](Cc1ccccc1)NC(=O)[C@H](Cc1ccc(O)cc1)NC(=O)[C@@H]1CCCN1C(=O)[C@H](CC(C)C)NC(=O)[C@H](CC(=O)O)NC(=O)[C@@H](NC(=O)[C@H](CO)NC(=O)[C@@H](NC(=O)[C@@H]1CCCN1C(=O)[C@@H]1CCCN1C(=O)CNC(=O)[C@@H]1CCC(=O)N1)[C@@H](C)CC)[C@@H](C)CC)[C@@H](C)CC)[C@@H](C)CC)[C@@H](C)O)C(=O)O | 4.1 nM | 63.6 nM |
| CC[C@H](C)[C@H](NC(=O)[C@@H](NC(=O)[C@H](CC(=O)O)NC(=O)[C@H](CC(C)C)NC(=O)[C@H](CC(C)C)NC(=O)[C@H](CC(C)C)NC(=O)[C@H](CCCNC(=N)N)NC(=O)[C@H](CC(N)=O)NC(=O)[C@H](CC(N)=O)NC(=O)[C@H](C)NC(=O)[C@H](C)NC(=O)[C@H](CCC(N)=O)NC(=O)[C@H](CCC(N)=O)NC(=O)[C@H](CCCCN)NC(=O)[C@H](CCC(=O)O)NC(=O)[C@H](CCCCN)NC(=O)[C@H](CCC(=O)O)NC(=O)[C@H](CCC(N)=O)NC(=O)[C@H](CCCCN)NC(=O)[C@H](CCC(=O)O)NC(=O)[C@@H](NC(=O)[C@H](CCC(=O)O)NC(=O)[C@@H](NC(=O)[C@H](CCSC)NC(=O)[C@H](CCCCN)NC(=O)[C@H](CCCNC(=N)N)NC(=O)[C@H](CC(C)C)NC(=O)[C@H](CC(C)C)NC(=O)[C@@H](NC(=O)[C@H](CCC(N)=O)NC(=O)[C@@H]1CCCN1C(=O)[C@H](CC(C)C)NC(=O)[C@H](CC(=O)O)NC(=O)[C@@H](NC(=O)[C@H](CO)NC(=O)[C@@H](NC(=O)[C@@H]1CCCN1C(=O)[C@@H]1CCCN1C(=O)CNC(=O)[C@@H]1CCC(=O)N1)[C@@H](C)CC)[C@@H](C)CC)[C@@H](C)CC)[C@@H](C)CC)[C@@H](C)CC)[C@@H](C)O)C(=O)O | 8.5 nM | 707 nM |
| CC[C@H](C)[C@H](NC(=O)[C@@H](NC(=O)[C@H](CC(=O)O)NC(=O)[C@H](CC(C)C)NC(=O)[C@H](CC(C)C)NC(=O)[C@H](CC(C)C)NC(=O)[C@H](CCCNC(=N)N)NC(=O)[C@H](CC(N)=O)NC(=O)[C@H](CC(N)=O)NC(=O)[C@H](C)NC(=O)[C@H](C)NC(=O)[C@H](CCC(N)=O)NC(=O)[C@H](CCC(N)=O)NC(=O)[C@H](CCCCN)NC(=O)[C@H](CCC(=O)O)NC(=O)[C@H](CCCCN)NC(=O)[C@H](CCC(=O)O)NC(=O)[C@H](CCC(N)=O)NC(=O)[C@H](CCCCN)NC(=O)[C@H](CCC(=O)O)NC(=O)[C@@H](NC(=O)[C@H](CCC(=O)O)NC(=O)[C@@H](NC(=O)[C@H](CCSC)NC(=O)[C@H](CCCCN)NC(=O)[C@H](CCCNC(=N)N)NC(=O)[C@H](CC(C)C)NC(=O)[C@H](CC(C)C)NC(=O)[C@H](Cc1ccc(O)cc1)NC(=O)[C@H](Cc1ccc(O)cc1)NC(=O)[C@@H]1CCCN1C(=O)[C@H](CC(C)C)NC(=O)[C@H](CC(=O)O)NC(=O)[C@@H](NC(=O)[C@H](CO)NC(=O)[C@@H](NC(=O)[C@@H]1CCCN1C(=O)[C@@H]1CCCN1C(=O)CNC(=O)[C@@H]1CCC(=O)N1)[C@@H](C)CC)[C@@H](C)CC)[C@@H](C)CC)[C@@H](C)CC)[C@@H](C)O)C(=O)O | 7 nM | 102 nM |
| CC[C@H](C)[C@H](NC(=O)[C@@H](NC(=O)[C@H](CC(=O)O)NC(=O)[C@H](CC(C)C)NC(=O)[C@H](CC(C)C)NC(=O)[C@H](CC(C)C)NC(=O)[C@H](CCCNC(=N)N)NC(=O)[C@H](CC(N)=O)NC(=O)[C@H](CC(N)=O)NC(=O)[C@H](C)NC(=O)[C@H](C)NC(=O)[C@H](CCC(N)=O)NC(=O)[C@H](CCC(N)=O)NC(=O)[C@H](CCCCN)NC(=O)[C@H](CCC(=O)O)NC(=O)[C@H](CCCCN)NC(=O)[C@H](CCC(=O)O)NC(=O)[C@H](CCC(N)=O)NC(=O)[C@H](CCCCN)NC(=O)[C@H](CCC(=O)O)NC(=O)[C@@H](NC(=O)[C@H](CCC(=O)O)NC(=O)[C@@H](NC(=O)[C@H](CCSC)NC(=O)[C@H](CCCCN)NC(=O)[C@H](CCCNC(=N)N)NC(=O)[C@H](CC(C)C)NC(=O)[C@H](CC(C)C)NC(=O)[C@H](CC(C)C)NC(=O)[C@@H](NC(=O)[C@@H]1CCCN1C(=O)[C@H](CC(C)C)NC(=O)[C@H](CC(=O)O)NC(=O)[C@@H](NC(=O)[C@H](CO)NC(=O)[C@@H](NC(=O)[C@@H]1CCCN1C(=O)[C@@H]1CCCN1C(=O)CNC(=O)[C@@H]1CCC(=O)N1)[C@@H](C)CC)[C@@H](C)CC)[C@@H](C)O)[C@@H](C)CC)[C@@H](C)CC)[C@@H](C)O)C(=O)O | 20.6 nM | > 1000 nM |
| CC[C@H](C)[C@H](NC(=O)[C@@H](NC(=O)[C@H](CC(=O)O)NC(=O)[C@H](CC(C)C)NC(=O)[C@H](CC(C)C)NC(=O)[C@H](CC(C)C)NC(=O)[C@H](CCCNC(=N)N)NC(=O)[C@H](CC(N)=O)NC(=O)[C@H](CC(N)=O)NC(=O)[C@H](C)NC(=O)[C@H](C)NC(=O)[C@H](CCC(N)=O)NC(=O)[C@H](CCC(N)=O)NC(=O)[C@H](CCCCN)NC(=O)[C@H](CCC(=O)O)NC(=O)[C@H](CCCCN)NC(=O)[C@H](CCC(=O)O)NC(=O)[C@H](CCC(N)=O)NC(=O)[C@H](CCCCN)NC(=O)[C@H](CCC(=O)O)NC(=O)[C@@H](NC(=O)[C@H](CCC(=O)O)NC(=O)[C@@H](NC(=O)[C@H](CCSC)NC(=O)[C@H](CCCCN)NC(=O)[C@H](CCCNC(=N)N)NC(=O)[C@H](CC(C)C)NC(=O)[C@H](CC(C)C)NC(=O)CNC(=O)[C@H](CC(C)C)NC(=O)[C@@H]1CCCN1C(=O)[C@H](CC(C)C)NC(=O)[C@H](CC(=O)O)NC(=O)[C@@H](NC(=O)[C@H](CO)NC(=O)[C@@H](NC(=O)[C@@H]1CCCN1C(=O)[C@@H]1CCCN1C(=O)CNC(=O)[C@@H]1CCC(=O)N1)[C@@H](C)CC)[C@@H](C)CC)[C@@H](C)CC)[C@@H](C)CC)[C@@H](C)O)C(=O)O ([pGlu]GPPISIDLPLGLLRKMIEIEKQEKEKQQAANNRLLLDTI-OH) | 21.6 nM | 312 nM |

More lines, now with the values ahead:

| EC50 [1] | EC50 [2] | Structure (SMILES) |
| --- | --- | --- |
| 13.3 nM | 582 nM | CC[C@H](C)[C@H](NC(=O)[C@@H](NC(=O)[C@H](CC(=O)O)NC(=O)[C@H](CC(C)C)NC(=O)[C@H](CC(C)C)NC(=O)[C@H](CC(C)C)NC(=O)[C@H](CCCNC(=N)N)NC(=O)[C@H](CC(N)=O)NC(=O)[C@H](CC(N)=O)NC(=O)[C@H](C)NC(=O)[C@H](C)NC(=O)[C@H](CCC(N)=O)NC(=O)[C@H](CCC(N)=O)NC(=O)[C@H](CCCCN)NC(=O)[C@H](CCC(=O)O)NC(=O)[C@H](CCCCN)NC(=O)[C@H](CCC(=O)O)NC(=O)[C@H](CCC(N)=O)NC(=O)[C@H](CCCCN)NC(=O)[C@H](CCC(=O)O)NC(=O)[C@@H](NC(=O)[C@H](CCC(=O)O)NC(=O)[C@@H](NC(=O)[C@H](CCSC)NC(=O)[C@H](CCCCN)NC(=O)[C@H](CCCNC(=N)N)NC(=O)[C@H](CC(C)C)NC(=O)[C@H](CC(C)C)NC(=O)[C@H](Cc1ccc2ccccc2c1)NC(=O)[C@H](C)NC(=O)[C@@H]1CCCN1C(=O)[C@H](CC(C)C)NC(=O)[C@H](CC(=O)O)NC(=O)[C@@H](NC(=O)[C@H](CO)NC(=O)[C@@H](NC(=O)[C@@H]1CCCN1C(=O)[C@@H]1CCCN1C(=O)CNC(=O)[C@@H]1CCC(=O)N1)[C@@H](C)CC)[C@@H](C)CC)[C@@H](C)CC)[C@@H](C)CC)[C@@H](C)O)C(=O)O ([pGlu]GPPISIDLPA[2Nal]LLRKMIEIEKQEKEKQQAANNRLLLDTI-OH) |
| 6.5 nM | 423 nM | CC[C@H](C)[C@H](NC(=O)[C@@H](NC(=O)[C@H](CC(=O)O)NC(=O)[C@H](CC(C)C)NC(=O)[C@H](CC(C)C)NC(=O)[C@H](CC(C)C)NC(=O)[C@H](CCCNC(=N)N)NC(=O)[C@H](CC(N)=O)NC(=O)[C@H](CC(N)=O)NC(=O)[C@H](C)NC(=O)[C@H](C)NC(=O)[C@H](CCC(N)=O)NC(=O)[C@H](CCC(N)=O)NC(=O)[C@H](CCCCN)NC(=O)[C@H](CCC(=O)O)NC(=O)[C@H](CCCCN)NC(=O)[C@H](CCC(=O)O)NC(=O)[C@H](CCC(N)=O)NC(=O)[C@H](CCCCN)NC(=O)[C@H](CCC(=O)O)NC(=O)[C@@H](NC(=O)[C@H](CCC(=O)O)NC(=O)[C@@H](NC(=O)[C@H](CCSC)NC(=O)[C@H](CCCCN)NC(=O)[C@H](CCCNC(=N)N)NC(=O)[C@H](CC(C)C)NC(=O)[C@H](CC(C)C)NC(=O)[C@H](CCC(N)=O)NC(=O)[C@H](CC(C)C)NC(=O)[C@@H]1CCCN1C(=O)[C@H](CC(C)C)NC(=O)[C@H](CC(=O)O)NC(=O)[C@@H](NC(=O)[C@H](CO)NC(=O)[C@@H](NC(=O)[C@@H]1CCCN1C(=O)[C@@H]1CCCN1C(=O)CNC(=O)[C@@H]1CCC(=O)N1)[C@@H](C)CC)[C@@H](C)CC)[C@@H](C)CC)[C@@H](C)CC)[C@@H](C)O)C(=O)O |
